From paper PMC10633873 (ACS Omega, 2023) come the findings set out here.

Structures are written as SMILES. Starred links: 1 amine or outer side, 2 acyl side, 3 side chain; linkers in the order of their positions; H or OH if unused. Positions of bridges follow the written chain, without caps; N, C: chain ends. Non-standard residues stand in square brackets, D forms with d. Residues, ends and D or L forms follow the SMILES beside them. Chains are numbered I, II in the order given. Actinocin(9to1) = Cc1c2oc3c(C)ccc(C(=O)[*:1])c3nc-2c(C(=O)[*:2])c(N)c1=O; NMeV = CN[C@H](C(=O)O)C(C)C; Sar = CNCC(=O)O

The term Km denotes the substrate concentration at which the rate is half of its maximum. What is called IC50 is the point on the concentration scale where inhibition reaches its midpoint. For orientation: CC50 means the concentration that lowers cell viability or growth by half. Lower therefore signals harm at low concentration.

The target of one data set is T1, HEV-RdRp (Hepatitis E virus genotype 1, UniProt P33424).
T1 sequence (P33424 1207-1693 limits assumed): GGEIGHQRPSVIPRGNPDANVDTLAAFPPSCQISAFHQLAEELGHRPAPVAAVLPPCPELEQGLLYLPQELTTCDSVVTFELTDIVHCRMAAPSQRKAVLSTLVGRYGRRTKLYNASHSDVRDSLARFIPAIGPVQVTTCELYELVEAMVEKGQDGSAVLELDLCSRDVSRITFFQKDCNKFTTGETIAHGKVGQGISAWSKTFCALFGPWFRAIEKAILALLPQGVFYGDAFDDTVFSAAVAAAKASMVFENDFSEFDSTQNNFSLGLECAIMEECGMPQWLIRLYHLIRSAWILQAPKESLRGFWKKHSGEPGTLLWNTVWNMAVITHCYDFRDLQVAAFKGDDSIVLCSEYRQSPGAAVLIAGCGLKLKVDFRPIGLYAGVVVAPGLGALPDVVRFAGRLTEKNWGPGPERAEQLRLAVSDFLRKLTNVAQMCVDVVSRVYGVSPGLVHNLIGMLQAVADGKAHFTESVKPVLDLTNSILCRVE
The data set can be described thus: HEV-RdRp enzyme activity. Type of data set: biochemical.

Data set [1] is described as follows: Cell viability by MTT assay. Type of data set: cell-based. Conditions: human, Huh7 cells. (In general: Tetrazolium assays rely on reduction of a dye to a coloured formazan, in cell work by metabolically active cells.)
For data set [2], the system named is HEV. Nature of the data set: Immunofluorescence assay of ORF2 expression in HEV RNA-transfected Huh7 cells. In kind it is cell-based, Hepatitis E virus. The settings on record: Huh7, anti-HEV-ORF2, 4–5 days after transfection.
Data set [3] deals with HEV. Nature of the data set: Effect on viral replication. In kind it is cell-based, Hepatitis E virus. Conditions: concentration and assay not stated.
In a further data set the test system is HEV genotype 3 (pSHEV-3). The data set can be described thus: Viral RNA copy number by qPCR in Huh7 cells transfected with full-length HEV RNA. In kind it is cell-based, Hepatitis E virus. Conditions: 5 days post transfection, vs untreated cells. On the technique in general: Real-time PCR tracks product formation cycle by cycle.

On to `Nc1nc2c(ncn2[C@@H]2O[C@H](COP(=O)(O)OP(=O)(O)OP(=O)(O)O)[C@@H](O)[C@H]2O)c(=O)[nH]1` [GTP], for which the Km at HEV-RdRp (GTP varied 0 to 8 mM, 5 μM enzyme, poly(C) 1 μg, Michaelis–Menten fit) worked out at 400 µM.
As to `Cc1c2oc3c(C)ccc(C(=O)N[C@@H]4C(=O)N[C@H](C(C)C)C(=O)N5CCC[C@H]5C(=O)N(C)CC(=O)N(C)[C@@H](C(C)C)C(=O)O[C@@H]4C)c3nc-2c(C(=O)N[C@@H]2C(=O)N[C@H](C(C)C)C(=O)N3CCC[C@H]3C(=O)N(C)CC(=O)N(C)[C@@H](C(C)C)C(=O)O[C@@H]2C)c(N)c1=O` [actinomycin-D] (I: T[dV]P[Sar][NMeV] / II: T[dV]P[Sar][NMeV]; ester I:1-I:C, II:1-II:C; linker I:N-II:N via Actinocin(9to1)), the “effect on enzyme activity of RdRp” value at HEV-RdRp (5 μM actinomycin-D added to the reaction mixture) was “no significant effect”.
In the case of `NC(=O)c1nc(F)c[nH]c1=O` [favipiravir], on HEV-RdRp, the IC50 came to 10.2 ± 4.9 µM and the “effect on polymerase activity of HEV-RdRp” value is recorded as “reduced the polymerase activity”. The CC50 at 72 h in data set [1] was less than 500 µM. Besides, the “effect on HEV replication (ORF2 mean fluorescence intensity)” value in the data set with HEV [2] is on record as “significantly inhibited HEV replication”.
With `CCc1cc(CC[C@]2(C3CCCC3)CC(O)=C(Cc3nc4nc(C)cc(C)n4n3)C(=O)O2)cc(CC)n1` [filibuvir], the “effect on polymerase activity of HEV-RdRp” value on HEV-RdRp is on record as “reduced the polymerase activity”.
As to `Nc1ccn([C@@H]2CS[C@H](CO)O2)c(=O)n1` [lamivudine], in the data set with HEV [3], the “effect on viral replication” value was “did not show any effect”. Further, on HEV-RdRp (concentration not given), the “effect on in vitro enzyme activity of HEV-RdRp” value was “inhibited”.
`CCC(CC)COC(=O)[C@H](C)N[P@](=O)(OC[C@H]1O[C@@](C#N)(c2ccc3c(N)ncnn23)[C@H](O)[C@@H]1O)Oc1ccccc1` [remdesivir]: the “effect on polymerase activity of HEV-RdRp” value at HEV-RdRp was “did not show any effect”.
For `NC(=O)c1ncn([C@@H]2O[C@H](CO)[C@@H](O)[C@H]2O)n1` [ribavirin], at HEV-RdRp, inhibition was half-maximal at 3.5 ± 1.6 µM (IC50) and the “effect on polymerase activity of HEV-RdRp” value is “reduced the polymerase activity”. Further, the CC50 at 72 h in data set [1] was less than 100 µM. Also, the “% reduction of viral RNA” value with HEV genotype 3 (pSHEV-3) (100 μM) was “∼72%”.
Regarding `CC(C)OC(=O)[C@H](C)N[P@](=O)(OC[C@H]1O[C@@H](n2ccc(=O)[nH]c2=O)[C@](C)(F)[C@@H]1O)Oc1ccccc1` [sofosbuvir], on HEV-RdRp, half-maximal inhibition (IC50) was put at 5.2 ± 2.9 µM and the “effect on polymerase activity of HEV-RdRp” value is “reduced the polymerase activity”. Also, the CC50 at 72 h in data set [1] was less than 125 µM. Also, the “% reduction of viral RNA” value in the data set with HEV genotype 3 (pSHEV-3) (125 μM) is listed as “∼68%”.
